Laboratory results taken from paper PMC5218480 (PLoS ONE, 2017).

Tested on: MV-4-11 cells
Assay: Gene expression microarray analysis (Affymetrix PrimeView) and GSEA
Type: cell-based, human
Parameters: RFU PODN (11730768_x_at) / Fold change /veh PODN (11730768_x_at) / RFU LINC00158 (11744669_a_at) / Fold change /veh LINC00158 (11744669_a_at) / RFU DUSP10 (11751237_a_at) / Fold change /veh DUSP10 (11751237_a_at) / RFU ID3 (11757404_x_at) / Fold change /veh ID3 (11757404_x_at) / RFU PLEKHG5 (11737974_s_at) / Fold change /veh PLEKHG5 (11737974_s_at) / RFU LRRC4B (11730491_at) / Fold change /veh LRRC4B (11730491_at) / RFU GIMAP4 (11747438_a_at) / Fold change /veh GIMAP4 (11747438_a_at) / RFU KRT8 (11758183_x_at) / Fold change /veh KRT8 (11758183_x_at) / RFU CNN1 (11734310_a_at) / Fold change /veh CNN1 (11734310_a_at) / RFU VPS37D (11726825_at) / Fold change /veh VPS37D (11726825_at) / RFU C10orf10 (11716522_x_at) / Fold change /veh C10orf10 (11716522_x_at) / RFU KIR2DL2 /// KIR2DL4 /// KIR2DL5A /// KIR2DL5B /// KIR2DS1 /// KIR2DS2 /// KIR2DS3 /// KIR2DS4 /// KIR3DL3 /// KIR3DL3 /// KIR3DS1 (11738374_at) / Fold change /veh KIR2DL2 /// KIR2DL4 /// KIR2DL5A /// KIR2DL5B /// KIR2DS1 /// KIR2DS2 /// KIR2DS3 /// KIR2DS4 /// KIR3DL3 /// KIR3DL3 /// KIR3DS1 (11738374_at) / RFU C1QL1 (11718748_at) / Fold change /veh C1QL1 (11718748_at) / RFU TMPRSS4 (11747572_a_at) / Fold change /veh TMPRSS4 (11747572_a_at) / RFU HAMP (11756126_x_at) / Fold change /veh HAMP (11756126_x_at) / RFU RNFT2 (11725882_a_at) / Fold change /veh RNFT2 (11725882_a_at) / RFU NR4A2 (11747474_a_at) / Fold change /veh NR4A2 (11747474_a_at) / RFU ABCC12 (11746883_a_at) / Fold change /veh ABCC12 (11746883_a_at) / RFU TMEM136 (11760407_x_at) / Fold change /veh TMEM136 (11760407_x_at) / RFU CLDN22 /// WWC2 (11732394_at) / Fold change /veh CLDN22 /// WWC2 (11732394_at) / RFU HLA-DPB1 (11760878_x_at) / Fold change /veh HLA-DPB1 (11760878_x_at) / RFU SPINT1 (11716480_a_at) / Fold change /veh SPINT1 (11716480_a_at) / RFU GAP43 (11754022_s_at) / Fold change /veh GAP43 (11754022_s_at) / RFU A4GNT (11735810_at) / Fold change /veh A4GNT (11735810_at) / RFU PRB3 (11715151_x_at) / Fold change /veh PRB3 (11715151_x_at) / RFU TUBB4B (11761932_at) / Fold change /veh TUBB4B (11761932_at) / RFU CAPN14 (11732068_a_at) / Fold change /veh CAPN14 (11732068_a_at) / RFU TMCC2 (11721928_a_at) / Fold change /veh TMCC2 (11721928_a_at) / RFU IRGQ (11745062_a_at) / Fold change /veh IRGQ (11745062_a_at) / RFU FAM174B (11720279_a_at) / Fold change /veh FAM174B (11720279_a_at) / RFU TMPRSS4 (11748680_a_at) / Fold change /veh TMPRSS4 (11748680_a_at) / RFU FAM212B (11763350_a_at) / Fold change /veh FAM212B (11763350_a_at) / RFU PLEKHG5 (11743358_a_at) / Fold change /veh PLEKHG5 (11743358_a_at) / RFU ZSCAN30 (11745921_a_at) / Fold change /veh ZSCAN30 (11745921_a_at) / RFU CMKLR1 (11741424_a_at) / Fold change /veh CMKLR1 (11741424_a_at) / RFU LOC101060620 /// MAPK8IP1 (11723275_at) / Fold change /veh LOC101060620 /// MAPK8IP1 (11723275_at) / RFU SPTSSB (11747773_x_at) / Fold change /veh SPTSSB (11747773_x_at) / RFU PRSS12 (11739890_at) / Fold change /veh PRSS12 (11739890_at) / RFU BIN1 (11741810_x_at) / Fold change /veh BIN1 (11741810_x_at) / RFU WNT11 (11732464_a_at) / Fold change /veh WNT11 (11732464_a_at) / RFU C10orf10 (11716521_a_at) / Fold change /veh C10orf10 (11716521_a_at) / RFU C5orf56 (11738089_at) / Fold change /veh C5orf56 (11738089_at) / RFU CYB561 (11721691_x_at) / Fold change /veh CYB561 (11721691_x_at) / RFU ANKRD19P (11752326_a_at) / Fold change /veh ANKRD19P (11752326_a_at) / RFU OR2T12 /// OR2T33 /// OR2T8 (11738714_s_at) / Fold change /veh OR2T12 /// OR2T33 /// OR2T8 (11738714_s_at) / RFU VCAN (11748164_a_at) / Fold change /veh VCAN (11748164_a_at) / RFU JSRP1 (11732532_at) / Fold change /veh JSRP1 (11732532_at) / RFU KRTAP10-11 (11738290_x_at) / Fold change /veh KRTAP10-11 (11738290_x_at) / RFU MYO3A (11730013_a_at) / Fold change /veh MYO3A (11730013_a_at) / RFU EBF3 (11725865_a_at) / Fold change /veh EBF3 (11725865_a_at) / RFU CAMK2N1 (11719241_x_at) / Fold change /veh CAMK2N1 (11719241_x_at) / RFU C5orf56 (11738088_a_at) / Fold change /veh C5orf56 (11738088_a_at) / RFU OLFML3 (11715873_a_at) / Fold change /veh OLFML3 (11715873_a_at) / RFU LOC100653217 /// NTM (11731650_a_at) / Fold change /veh LOC100653217 /// NTM (11731650_a_at) / RFU MAPK11 (11762145_a_at) / Fold change /veh MAPK11 (11762145_a_at) / RFU FIZ1 (11724087_x_at) / Fold change /veh FIZ1 (11724087_x_at) / RFU OASL (11726364_x_at) / Fold change /veh OASL (11726364_x_at) / RFU SOX15 (11748057_x_at) / Fold change /veh SOX15 (11748057_x_at) / RFU CD79A (11719716_a_at) / Fold change /veh CD79A (11719716_a_at) / RFU HIST1H1D (11736915_at) / Fold change /veh HIST1H1D (11736915_at) / RFU CASKIN2 (11723855_a_at) / Fold change /veh CASKIN2 (11723855_a_at) / RFU LOC730098 (11760151_x_at) / Fold change /veh LOC730098 (11760151_x_at) / RFU OR4N2 (11742367_at) / Fold change /veh OR4N2 (11742367_at) / RFU PRRT2 (11749266_a_at) / Fold change /veh PRRT2 (11749266_a_at) / RFU SNX32 (11753110_a_at) / Fold change /veh SNX32 (11753110_a_at) / RFU CDHR5 (11726645_a_at) / Fold change /veh CDHR5 (11726645_a_at) / RFU RCAN1 (11760418_a_at) / Fold change /veh RCAN1 (11760418_a_at) / RFU FAM167A (11723789_a_at) / Fold change /veh FAM167A (11723789_a_at) / RFU FAM26E (11764081_at) / Fold change /veh FAM26E (11764081_at) / RFU ISYNA1 (11749810_s_at) / Fold change /veh ISYNA1 (11749810_s_at) / RFU ACY1 (11761880_at) / Fold change /veh ACY1 (11761880_at) / RFU 11764098_at / Fold change /veh 11764098_at / RFU SAMD14 (11745864_x_at) / Fold change /veh SAMD14 (11745864_x_at) / RFU NPB (11741838_a_at) / Fold change /veh NPB (11741838_a_at) / RFU TMPRSS6 (11731388_a_at) / Fold change /veh TMPRSS6 (11731388_a_at) / RFU KRTAP10-2 (11738614_at) / Fold change /veh KRTAP10-2 (11738614_at) / RFU ARHGAP8 /// PRR5-ARHGAP8 (11727945_x_at) / Fold change /veh ARHGAP8 /// PRR5-ARHGAP8 (11727945_x_at) / RFU KRTAP5-7 /// NADSYN1 (11734609_at) / Fold change /veh KRTAP5-7 /// NADSYN1 (11734609_at) / RFU RASL12 (11751679_a_at) / Fold change /veh RASL12 (11751679_a_at) / RFU CDKN2B (11736163_a_at) / Fold change /veh CDKN2B (11736163_a_at) / RFU PRF1 (11729649_at) / Fold change /veh PRF1 (11729649_at) / RFU, ZNF638 /// ZNF638-IT1 / Fold change vs veh, ZNF638 /// ZNF638-IT1 / RFU, PANK3 / Fold change vs veh, PANK3 / RFU, SH3YL1 / Fold change vs veh, SH3YL1 / RFU, ZEB2 / Fold change vs veh, ZEB2 / RFU, NRIP1 / Fold change vs veh, NRIP1 / RFU, PTTG1IP / Fold change vs veh, PTTG1IP / RFU, CAPN2 / Fold change vs veh, CAPN2 / RFU, MED14 / Fold change vs veh, MED14 / RFU, SNORA58 / Fold change vs veh, SNORA58 / RFU, C1orf63 / Fold change vs veh, C1orf63 / RFU, LRRFIP1 / Fold change vs veh, LRRFIP1 / RFU, NDUFAF7 / Fold change vs veh, NDUFAF7 / RFU, SLC12A2 / Fold change vs veh, SLC12A2 / RFU, IBTK / Fold change vs veh, IBTK / RFU, ESF1 / Fold change vs veh, ESF1 / Fold change vs veh, TMEM50B / RFU, TAOK1 / Fold change vs veh, TAOK1 / RFU, ACBD3 / Fold change vs veh, ACBD3 / RFU, TMA16 / Fold change vs veh, TMA16 / RFU, RWDD3 / Fold change vs veh, RWDD3 / RFU, BCAT1 / Fold change vs veh, BCAT1 / RFU, EDEM3 / Fold change vs veh, EDEM3 / RFU, TMEM33 / Fold change vs veh, TMEM33 / RFU, WDR75 / Fold change vs veh, WDR75 / RFU, AHCTF1 / Fold change vs veh, AHCTF1 / RFU, TFRC / Fold change vs veh, TFRC / RFU, ZDHHC17 / Fold change vs veh, ZDHHC17 / RFU, NOM1 / Fold change vs veh, NOM1 / RFU, ARL8B / Fold change vs veh, ARL8B / RFU, ZBTB11 / Fold change vs veh, ZBTB11 / RFU, TAMM41 / Fold change vs veh, TAMM41 / RFU, KIAA1704 /// LOC100996395 / Fold change vs veh, KIAA1704 /// LOC100996395 / RFU, ING1 / Fold change vs veh, ING1 / RFU, TRMT61B / Fold change vs veh, TRMT61B / RFU, FUBP3 / Fold change vs veh, FUBP3 / RFU, TP53 / Fold change vs veh, TP53 / RFU, TNKS2 / Fold change vs veh, TNKS2 / RFU, ZFP14 / Fold change vs veh, ZFP14 / RFU, ACTR2 / Fold change vs veh, ACTR2 / RFU, PPP3R1 / Fold change vs veh, PPP3R1 / RFU, PIK3R1 / Fold change vs veh, PIK3R1 / RFU, HNRNPA1 / Fold change vs veh, HNRNPA1 / RFU, RNF170 / Fold change vs veh, RNF170 / RFU, ZNF28 / Fold change vs veh, ZNF28 / RFU, RNGTT / Fold change vs veh, RNGTT / RFU, OGT / Fold change vs veh, OGT / RFU, BRD1 / Fold change vs veh, BRD1 / RFU, MARS / Fold change vs veh, MARS / RFU, ZNF655 / Fold change vs veh, ZNF655 / RFU, FAHD1 / Fold change vs veh, FAHD1 / RFU, BDP1 / Fold change vs veh, BDP1 / RFU, LRRCC1 / Fold change vs veh, LRRCC1 / RFU, ARID1A / Fold change vs veh, ARID1A / RFU, ZNF146 / Fold change vs veh, ZNF146 / RFU, ZNF330 / Fold change vs veh, ZNF330 / RFU, GPN3 / Fold change vs veh, GPN3 / RFU, C9orf123 / Fold change vs veh, C9orf123 / RFU, N4BP2L2 / Fold change vs veh, N4BP2L2 / RFU, ARFIP1 / Fold change vs veh, ARFIP1 / RFU, FAM179B / Fold change vs veh, FAM179B / RFU, BCL10 / Fold change vs veh, BCL10 / RFU, UHRF1BP1L / Fold change vs veh, UHRF1BP1L / RFU, BET1 / Fold change vs veh, BET1 / RFU, CNOT2 / Fold change vs veh, CNOT2 / RFU, ZNF268 / Fold change vs veh, ZNF268 / Fold change vs veh, ZNF507 / RFU, DGCR2 / Fold change vs veh, DGCR2 / RFU, WDSUB1 / Fold change vs veh, WDSUB1 / Fold change vs veh, HSP90B1 /// MIR3652 / RFU, ADSS / Fold change vs veh, ADSS / RFU, GK / Fold change vs veh, GK / RFU, ZNF148 / Fold change vs veh, ZNF148 / RFU, TAF9 / Fold change vs veh, TAF9 / RFU, SLC1A5 / Fold change vs veh, SLC1A5 / RFU, SLMO2 / Fold change vs veh, SLMO2 / RFU, ABCC4 / Fold change vs veh, ABCC4 / RFU, LOC101060439 /// RAP1B / Fold change vs veh, LOC101060439 /// RAP1B / RFU, RFX7 / Fold change vs veh, RFX7 / RFU, GTPBP10 / Fold change vs veh, GTPBP10 / RFU, CNEP1R1 / Fold change vs veh, CNEP1R1 / RFU, BIVM-ERCC5 /// ERCC5 / Fold change vs veh, BIVM-ERCC5 /// ERCC5 / RFU, ILF3 / Fold change vs veh, ILF3 / RFU 11762660_at / Fold change /veh 11762660_at / RFU VCAN (11757783_s_at) / Fold change /veh VCAN (11757783_s_at) / RFU DDX43 (11728927_at) / Fold change /veh DDX43 (11728927_at) / RFU KRT8 (11758188_x_at) / Fold change /veh KRT8 (11758188_x_at) / RFU NKD1 (11759106_at) / Fold change /veh NKD1 (11759106_at) / RFU SRD5A1 (11742802_a_at) / Fold change /veh SRD5A1 (11742802_a_at) / RFU TPSAB1 /// TPSB2 (11721975_s_at) / Fold change /veh TPSAB1 /// TPSB2 (11721975_s_at) / RFU GSTM3 (11746129_a_at) / Fold change /veh GSTM3 (11746129_a_at) / RFU IL23R (11737362_x_at) / Fold change /veh IL23R (11737362_x_at) / RFU TMEM51 (11727254_a_at) / Fold change /veh TMEM51 (11727254_a_at) / RFU PIWIL2 (11732686_x_at) / Fold change /veh PIWIL2 (11732686_x_at) / RFU ORM1 (11744905_x_at) / Fold change /veh ORM1 (11744905_x_at) / RFU CCDC152 (11743942_at) / Fold change /veh CCDC152 (11743942_at) / RFU ECM1 (11717891_a_at) / Fold change /veh ECM1 (11717891_a_at) / RFU IL23R (11748794_a_at) / Fold change /veh IL23R (11748794_a_at) / RFU TNFAIP8L3 (11732012_x_at) / Fold change /veh TNFAIP8L3 (11732012_x_at) / RFU MBOAT4 (11741988_at) / Fold change /veh MBOAT4 (11741988_at) / RFU 11764193_at / Fold change /veh 11764193_at / RFU TMEM53 (11763286_at) / Fold change /veh TMEM53 (11763286_at) / RFU MAGEB2 (11727129_at) / Fold change /veh MAGEB2 (11727129_at) / RFU TMEM200A (11744735_a_at) / Fold change /veh TMEM200A (11744735_a_at) / RFU CCDC152 (11751479_a_at) / Fold change /veh CCDC152 (11751479_a_at) / RFU FAM211A (11726209_a_at) / Fold change /veh FAM211A (11726209_a_at) / RFU RGS16 (11746705_a_at) / Fold change /veh RGS16 (11746705_a_at) / RFU VCAN (11755009_s_at) / Fold change /veh VCAN (11755009_s_at) / RFU RHOB (11743442_s_at) / Fold change /veh RHOB (11743442_s_at) / RFU RGS16 (11720943_a_at) / Fold change /veh RGS16 (11720943_a_at) / RFU RGS16 (11720944_at) / Fold change /veh RGS16 (11720944_at) / RFU, VPS4B / Fold change vs veh, VPS4B / RFU, CREB1 / Fold change vs veh, CREB1 / RFU, DNAJC13 / Fold change vs veh, DNAJC13 / RFU, GNAQ / Fold change vs veh, GNAQ / RFU, CDK5R1 / Fold change vs veh, CDK5R1 / RFU, ZRANB3 / Fold change vs veh, ZRANB3 / RFU, CUL4A / Fold change vs veh, CUL4A / RFU, CCNY / Fold change vs veh, CCNY / RFU, UFL1 / Fold change vs veh, UFL1 / RFU, COG3 / Fold change vs veh, COG3 / RFU, DIAPH2 / Fold change vs veh, DIAPH2 / RFU, SKA2 / Fold change vs veh, SKA2 / RFU, AFF3 / Fold change vs veh, AFF3 / RFU, LMF1 / Fold change vs veh, LMF1 / RFU, IPO11 / Fold change vs veh, IPO11 / RFU, DFFB / Fold change vs veh, DFFB / RFU, FOXP1 / Fold change vs veh, FOXP1 / RFU, CARD8 / Fold change vs veh, CARD8 / RFU, STRN3 / Fold change vs veh, STRN3 / RFU, ADK / Fold change vs veh, ADK / RFU, RASSF2 / Fold change vs veh, RASSF2 / RFU, WIPF1 / Fold change vs veh, WIPF1 / RFU, LARP1B / Fold change vs veh, LARP1B / RFU, RASA1 / Fold change vs veh, RASA1 / RFU, RB1 / Fold change vs veh, RB1 / RFU, PPFIA1 / Fold change vs veh, PPFIA1 / RFU, MAT2A / Fold change vs veh, MAT2A / RFU, CCT5 / Fold change vs veh, CCT5 / RFU, WDR92 / Fold change vs veh, WDR92 / RFU, CUX1 / Fold change vs veh, CUX1 / RFU, TTC7A / Fold change vs veh, TTC7A / RFU, TMEM135 / Fold change vs veh, TMEM135 / RFU, DEPTOR / Fold change vs veh, DEPTOR / RFU, CPM / Fold change vs veh, CPM / RFU, DNAJB6 / Fold change vs veh, DNAJB6 / RFU, CACNA2D3 / Fold change vs veh, CACNA2D3 / RFU, DTX4 / Fold change vs veh, DTX4 / RFU, TFCP2 / Fold change vs veh, TFCP2 / RFU, GMCL1 /// GMCL1P1 / Fold change vs veh, GMCL1 /// GMCL1P1 / RFU, AEBP2 / Fold change vs veh, AEBP2 / RFU, SNHG1 /// SNORD22 /// SNORD25 /// SNORD26 /// SNORD27 /// SNORD28 /// SNORD29 /// SNORD31 / Fold change vs veh, SNHG1 /// SNORD22 /// SNORD25 /// SNORD26 /// SNORD27 /// SNORD28 /// SNORD29 /// SNORD31 / Fold change (Aza/veh), C12orf56 (ProbeSet 11735607_a_at) / Fold change (ACY-1035/veh), C12orf56 (ProbeSet 11735607_a_at) / Fold change (Aza/veh), FGFR1OP (ProbeSet 11751329_s_at) / Fold change (ACY-1035/veh), FGFR1OP (ProbeSet 11751329_s_at) / Fold change (Aza/veh), VPS36 (ProbeSet 11739960_a_at) / Fold change (ACY-1035/veh), VPS36 (ProbeSet 11739960_a_at) / RFU SYPL1 (11715823_x_at) / Fold change /veh SYPL1 (11715823_x_at) / RFU IGFBP7 (11715501_s_at) / Fold change /veh IGFBP7 (11715501_s_at) / RFU REEP3 (11722064_at) / Fold change /veh REEP3 (11722064_at) / RFU IGLL1 (11728026_x_at) / Fold change /veh IGLL1 (11728026_x_at): dose or concentration left out as unconfirmed
Details: MV-4-11 cells, 48 hours

Nc1ncn([C@@H]2O[C@H](CO)[C@@H](O)[C@H]2O)c(=O)n1 [azacitidine]
RFU ISYNA1 (11749810_s_at): 23.56 RFU
